Consider ten compounds from patent EP2698385A1, “Detection of synthetic cannabinoids” (priority 2012, dated 2014).

For orientation: IC50 means the concentration that gives 50% inhibition.

Test [1] relates to antiserum raised to Immunogen II (Hapten B-BTG). The experiment in a line: Competitive ELISA microtiter plate assay (Example 19), antiserum raised to Immunogen II, Hapten A-HRP conjugate as detection reagent. In kind it is binding, sheep. On the procedure: Aqueous solutions of the immunogens prepared in examples 5 and 13 were formulated with Freund's Complete Adjuvant (FCA) to form emulsions consisting of 2mg/ml Immunogen I and 2mg/ml of Immunogen II in 50%(v/v) FCA. Three sheep were immunised with each emulsion (1° immunisations), 0.25ml being intramuscularly injected at four sites in the rump of each animal. Subsequent immunisations (boosts 2-8) contained 1mg/ml Immunogen I and 1mg/ml Immunogen II. All boosts were emulsified in 50%(v/v) Freund's Incomplete Adjuvant (FIA) and administered to the appropriate sheep in the same manner as the 1° immunisations, at monthly intervals. Blood sampling took place 7-14 days after each boost. Each sample was processed to produce antiserum, which was further purified by caprylic acid and ammonium sulphate precipitation to yield an immunoglobulin (Ig) fraction. The Ig fraction was evaluated by competitive ELISA microtiter plate assay, as described in example 19 below.
Example 19: Development of competitive ELISA for JWH synthetic cannabinoids and metabolites. • (a) The wells of an enhanced binding 96 well polystyrene microtiter plate were coated with the Ig fraction of the antiserum raised to Immunogen I (Hapten A-BTG - example 5) and diluted in 10mM Tris, pH8.5 (125µl/well). The appropriate antibody coating concentration was determined using standard ELISA checkerboard techniques. The plate was incubated for 2 hours at 37°C, washed 4 times over a 10-minute period with Tris buffered saline containing Tween 20 (TBST) and tapped dry. Standard solutions of JWH synthetic cannabinoids, metabolites and selected molecules were prepared in TBST and 50µl of each was added to the appropriate wells. 75µl of conjugate (Hapten A-HRP) diluted in Tris buffer containing EDTA, D-mannitol, sucrose, thimerosal and BSA, was added to each of the wells. The appropriate dilution of conjugate was also determined using standard ELISA checkerboard techniques. The plate was incubated at 25°C for 1 hour. The excess unbound conjugate was removed by washing 6 times over a 10-minute period with TBST and tapped dry. 125µl of tetramethylbenzedine (TMB) substrate solution was added to each well of the plate that was then incubated for 15-20 minutes in the dark at room temperature. The reaction was terminated by addition of 125µl of 0.2M sulphuric acid to each well. The absorbance was then measured at 450nm using a microtiter plate reader. Employing each series of standards, calibration curves were generated and these were used to determine the specificity of the immunoassay for the JWH synthetic cannabinoids, metabolites and selected molecules. The results of this study are presented in Tables 1 to 3, cross-reactivity being calculated according to the following formula: %CR = […] /IC50,CR X 100 [formula] Where %CR is the percentage cross-reactivity, IC50, YWH-018 is the concentration of JWH-018 that causes 50% displacement of signal and IC50, CR is the concentration of JWH synthetic cannabinoid/metabolite/selected molecule that causes 50% displacement of signal.
Table 1: Data generated from a competitive microtiter plate assay for JWH synthetic cannabinoids and metabolites, employing antiserum raised to Immunogen II (Hapten B-BTG) and conjugate (Hapten A-HRP) as detection reagent. (b) In a similar manner to that described in Example 19(a), the wells of a 96 well microtiter plate were coated with the Ig fraction of the antiserum raised to Immunogen II ([…]). Conjugate (Hapten A-HRP) was employed as a detection reagent.
For orientation: An ELISA detects its analyte on a solid surface through an enzyme-linked reagent.

Another test relates to Antibody to Immunogen I. Format: binding, sheep. Summed up:
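Sheep anti-Immunogen I IgG coated on plates, then JWH-018 standards (0–40 ng/ml) competed with hapten-HRP conjugate for 1 h at 25°C. TMB read-out at 450 nm, 4-parameter fit. IC50 is the standard concentration giving 50% B/B0; cross-reactivity of related cannabinoids taken from the calibration curves.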

[2] abbreviates: Table 1, 40 ng/ml highest concentration tested.
The mark [3] stands for this setting: Table 1, CR based on 100% for JWH-018.
[4] abbreviates: Cross-reactants at 100 ng/ml, Antibody to Immunogen I.

Where two headings read alike, the source gives them in different places. A value given as a limit tells only on which side of the number the result lay.

Regarding `O=C(O)CCCCn1cc(C(=O)c2cccc3ccccc23)c2ccccc21` [JWH-018 N-pentanoic acid metabolite], the IC50 in test [1] (setting [2]) came out at 5.48 ng/mL. In addition, the “% Cross-reactivity” value in test [1] (setting [3]) came out at 38.50%. For the same compound, the “%B/B0” value with Antibody to Immunogen I (setting [4]) amounted to 4.51%.

Take `O=C(c1cccc2ccccc12)c1cn(CCN2CCOCC2)c2ccccc12` [WIN 55,225 (other name JWH-200), JWH-200]: the IC50 in test [1] (setting [2]) came to 1.66 ng/mL. Besides, in test [1] (setting [3]), the “% Cross-reactivity” value was determined as 127.11%. The “%B/B0” value in the test with Antibody to Immunogen I (setting [4]) was determined as 3.51%.

Take `O=C(c1cccc2ccccc12)c1cn(CCCCCO)c2ccccc12` [JWH-018 N-(5-hydroxypentyl) metabolite]: the IC50 in test [1] (setting [2]) was 1.15 ng/mL. For the same compound, the “% Cross-reactivity” value in test [1] (setting [3]) is reported as 183.48%. Besides, the “%B/B0” value in the test with Antibody to Immunogen I (setting [4]) is reported as 3.50%.

Take `O=C(c1cccc2ccccc12)c1c[nH]c2ccccc12` [3-(1-naphthoyl)-1H-Indole, 3-(1-naphthoyl)-1H-indole]: the IC50 ng/ml in test [1] (setting [2]) was >> 40 ng/ml. In addition, the “% Cross-reactivity” value in test [1] (setting [3]) is given as << 5.28%. Besides, the “%B/B0” value in the test on Antibody to Immunogen I (setting [4]) was 15.63%.

For `CCCCn1cc(C(=O)c2cccc3ccccc23)c2ccccc21` [JWH-073], the IC50 in test [1] (setting [2]) came to 1.56 ng/mL. Further, the “% Cross-reactivity” value in test [1] (setting [3]) came out at 135.26%. For the same compound, the “%B/B0” value in the test on Antibody to Immunogen I (setting [4]) is 3.56%.

For `CCCCCn1cc(C(=O)c2cccc3ccccc23)c2ccc(O)cc21` [JWH-018 6-hydroxyindole metabolite], in test [1] (setting [2]), the IC50 turned out to be 0.98 ng/mL. The “% Cross-reactivity” value in test [1] (setting [3]) is 215.31%. Further, in the test with Antibody to Immunogen I (setting [4]), the “%B/B0” value was 8.07%.

Regarding `CCCCCn1cc(C(=O)c2cccc3ccccc23)c2c(O)cccc21` [JWH-018 4-hydroxyindole metabolite], the IC50 in test [1] (setting [2]) was found to be 9.16 ng/mL. Further, the “% Cross-reactivity” value in test [1] (setting [3]) came to 23.03%. The “%B/B0” value in the test with Antibody to Immunogen I (setting [4]) is 46.39%.

Turning to `CCCCCn1cc(C(=O)c2cccc3ccccc23)c2cc(O)ccc21` [JWH-018 5-hydroxyindole metabolite], in test [1] (setting [2]), the IC50 was found to be 1.62 ng/mL. The “% Cross-reactivity” value in test [1] (setting [3]) was 130.25%. Moreover, the “%B/B0” value in the test on Antibody to Immunogen I (setting [4]) worked out at 11.79%.

As to `CCCCCn1cc(C(=O)c2cccc3ccccc23)c2ccccc21` [JWH-018], the IC50 turned out to be 2.11 ng/mL in test [1] (setting [2]); 1.97 ng/mL in test [1] (first Table 4, Immunogen II); 2.016 ng/mL in the test on Antibody to Immunogen I (Table 3a standard curve, standard concentration which produces 50% B/B0). Also, the “% Cross-reactivity” value in test [1] (setting [3]) is recorded as 100.00%; in test [1] (first Table 4, Immunogen II, JWH-018 = 100) it was 100.00%. Further, the “%B/B0” value was 5.19% in the test on Antibody to Immunogen I (setting [4]); 77% with Antibody to Immunogen I (JWH-018 standard 0.625 ng/ml); 62% with Antibody to Immunogen I (JWH-018 standard 1.25 ng/ml); 44% in the test with Antibody to Immunogen I (JWH-018 standard 2.5 ng/ml); 31% in the test on Antibody to Immunogen I (JWH-018 standard 5 ng/ml); 20% in the test on Antibody to Immunogen I (JWH-018 standard 10 ng/ml). The “%B/B0” value with Antibody to Immunogen I (JWH-018 standard 20 ng/ml) is 14%; in the test with Antibody to Immunogen I (JWH-018 standard 40 ng/ml), 9%.

As for `CCCCCn1cc(C(=O)c2ccc(Cl)c3ccccc23)c2ccccc21` [JWH-398], the IC50 in test [1] (setting [2]) was found to be 17.55 ng/mL. For the same compound, in test [1] (setting [3]), the “% Cross-reactivity” value is on record as 12.02%. For the same compound, in the test on Antibody to Immunogen I (setting [4]), the “%B/B0” value is 60.31%.
